These results are taken from patent publication US20260325667A1, “TISSUE FACTOR ANTIBODY-DRUG CONJUGATES AND USES THEREOF” (priority 2022, published 2026).

Where two headings read alike, the source gives them in different places.

The subject of data set [1] is A431. As to the kind of experiment: In vitro cytotoxicity (CellTiter Glo, 5 days), A431. The following applies: controls (FITC-ADC 8 DAR 6.36; FITC-ADC 4 DAR 3.39; free belotecan). The class given is cell-based. As for the experimental part:
(§1) Various cancer cell lines were plated in 96-well plates (Costar 3610) at a density of 1.5×10^3 cells/well in 100 μL of growth media. The next day, cells were treated with […] of test compounds serially-diluted in media. After incubation at 37° C. with […] for 5 days, viability was measured using the Promega CellTiter Glo® reagent according to the manufacturer's recommendations. GI50 curves were calculated in GraphPad Prism normalized to the payload concentration.
In general terms: In ATP-based viability assays light output follows the ATP content of the culture.

The subject of data set [2] is HPAF-II. The experiment in a line: In vitro cytotoxicity (CellTiter Glo, 5 days), HPAF-II. The following applies: controls (FITC-ADC 8 DAR 6.36; FITC-ADC 4 DAR 3.39; free belotecan). It counts as cell-based. As to the method:
as §1

Data set [3] relates to BxPC-3. As to the kind of experiment: In vitro cytotoxicity (CellTiter Glo, 5 days), BxPC-3. The following applies: controls (FITC-ADC 8 DAR 6.36; FITC-ADC 4 DAR 3.39; free belotecan), FITC-ADC 4 value marked *: likely not accurate due to curve shape. It counts as cell-based. As for the experimental part: as §1
The nature of data set [4]: NHP payload (belotecan) concentration in plasma. It counts as in vivo, cynomolgus monkeys. The conditions noted are these: cynomolgus, ADC dosed q3wX2. As for the experimental part: To assess toxicity of the TF-ADCs, female cynomolgus (“cyno”) monkeys (n=2 per group) were treated via IV bolus with test articles at the doses indicated in the table below on days 1 and 22 (q3wX2). All monkeys that survived until day 43 of the study underwent euthanasia for necropsy and anatomic pathology evaluation. Clinical observations, ECG, eye exams, clinical and anatomic pathology, and TK analysis were performed.
Further, payload concentrations in plasma of cyno treated with various dosages of TF-ADC 6-4 and TF-ADC 6-8 were evaluated and the data is shown in FIGS. 14A and 14B. […] The plasma level of belotecan was low relative to ADCs and total antibody with a molar ratio (AUC0-21d) ranging from 169 to 519 for TF-ADC 6-4 and 130 to 156 for TF-ADC 6-8. TF-ADC 6-4 had approximately 2-fold higher belotecan compared to TF-ADC 6-8 for the same dose level. […] Belotecan's apparent half-life ranged between 3 to 6 days (Formation rate-limited).

Data set [5] relates to A431. The experiment in a line: ATP release from treated tumor cells (RealTimeGlo). The class given is cell-based. The following applies: TF+ tumor cell line, e.g. As to the method:
(§2) Tumor cell treatment: Tumor cells (such as A431 or SKOV-3) were trypsinized by washing with PBS, then 3 mL of TrypLE express was added to each T75 flask and incubated for 3-5 minutes at 37° C. DMEM containing 10% FBS (Gibco) was added to each flask to gently wash cells. Cells were then transferred to a conical tube and centrifuged at 1000RPM for 5 minutes and resuspended in fresh medium. Cells were counted and the cell concentration was adjusted to 10,000 cells per 80 μL. Cells were plated at 80 μL per well and incubated at 37° C., 5% CO2 for 5 hours to allow cells to adhere to the plate surface. 5× dilutions of treatment compounds were made in medium. 20 µL of treatment were added to each well and mixed gently and incubated at 37° C., 5% CO2. Belotecan, MMAE, and a benchmark ADC (also referred to herein as BM ADC, CAS 1418731-10-8 and INN 10148) were also tested in parallel and served as additional controls.
(§3) ICD molecule, such as ATP and HMGB1, readouts were performed as follows. For ATP release measurement, Promega RealTimeGlo extracellular ATP assay kit (Promega, Cat #GA5010) was used according to the manufacturer's instructions. […] ATP release was measured beginning 24 hours after treatment with readings every 10 minutes on a Spectramax i3× with temperature control at 37° C. […] HMGB1 release was measured at 48- and 72-hours post-treatment.

Data set [6] concerns A431. The experiment in a line: HMGB1 release from treated tumor cells (Lumit). The class given is cell-based. The conditions noted are these: TF+ tumor cell line, e.g. As to the method: as §2, §3
[7] abbreviates: read-out: IC50 - drug concentration.
Where [8] appears, read: read-out: IC50 - mAb concentration.

On to `CC[C@@]1(O)C(=O)OCc2c1cc1n(c2=O)Cc2c-1nc1ccccc1c2CCNC(C)C` [belotecan], for which the IC50 in data set [1] (Homo sapiens, A-431, 120 h, FITC-ADC 4 value marked *: likely not accurate due to curve shape, read-out: IC50 - mAb concentration) came out at 2.36 nM; in data set [1] (Homo sapiens, A-431, 120 h, read-out: IC50 - drug concentration), 2.36 nM; in data set [1] (FITC-ADC 4 value marked *: likely not accurate due to curve shape, read-out: IC50 - mAb concentration), 2.62 nM; in data set [1] (setting [7]), 2.62 nM; in data set [2] (Homo sapiens, 120 h, read-out: IC50 - drug concentration) it was 3.04 nM; in data set [2] (Homo sapiens, 120 h, read-out: IC50 - mAb concentration) it was 3.04 nM. Further, the IC50 came to 2.45 nM in data set [2] (setting [7]); 2.45 nM in data set [2] (setting [8]); 2.62 nM in data set [3] (Homo sapiens, BXPC-3, 120 h, read-out: IC50 - drug concentration); 2.62 nM in data set [3] (Homo sapiens, BXPC-3, 120 h, read-out: IC50 - mAb concentration); 2.56 nM in data set [3] (setting [7]); 2.56 nM in data set [3] (setting [8]). Besides, the accumulation of payload result in data set [4] is “Minimal accumulation of payload was observed”. Further, the ATP release result in data set [5] is listed as “induced the release”. Moreover, in data set [6], the HMGB1 release result is recorded as “induced the release”.
